Assay results: patent US20150284347A1, “NEW BENZENE SULFONAMIDE THIAZOLE COMPOUNDS” (INSERM (INSTITUT NATIONAL DE LA SANTÉ ET DE LA RECHERCHE …, priority 2012, published 2015)

Legend:
[1] = tested on: melanoma cells resistant to dabrafenib; test: Trypan blue cell viability, melanoma cells resistant to dabrafenib; format: cell-based, human; details: patient melanoma cells resistant to dabrafenib, FIG. 5
Method: The measure of cell viability was performed in the same way as for FIG. 1. Results are expressed as percentage of cells alive relatively to the number of living cells in the presence of DMSO, which is a negative control
Cells were seeded in 6-well plates (60000 cells/well), depleted and incubated with compounds for the times indicated. Then cells were detached in the presence of 2000 of HyQTase (Thermo) and 2 ml of RPMI 1640 Glutamax (Gibco) was added to the cell solution. 100 of this solution was stained for 1 minute with 100 of 0.4% trypan blue before counting with a Malassez chamber.
Melanoma cells resistant to dabrafenib wee prepared from patients treated and presented a resistance to dabrafenib. dabrafenib, [HA15], [SR47] and [SR50] were tested on these resistant cells, in order to determine their activity on cell viability of resistant melanoma cells, as illustrated in FIG. 5.

A375 melanoma cells = test: A375 melanoma xenograft tumor development in nude mice; format: in vivo; details: 0.7 mg/mouse/day over 24 days, athymic nude mice
Method: To assess a potential antineoplastic effect of (HA15) and (SR50) in vivo, A375 melanoma cells (2.5×10^6) were injected subcutaneously in 6-week-old female athymic nude mice and treated 5 days later by injection of vehicle (labrafil) or different compounds such as PLX4032, (HA15) and (SR50) (0.7 mg/mouse/day) over a period of 24 days. Inhibitory effect is expressed as the tumor volume (mm^3) on day 8, 11, 15, 18, 22 and 24.
Athymic BALB/C nu/nu mice (Harlan) were used. The animals were 6 weeks old and weighed between 20 and 25 g. The mice were housed in the animal's C3M in a 12 h/12 h cycle. The animals received water and food ad libitum. Mice were first acclimated for one week and then injected with A375 cells (2.5 million cells in 200 μl of PBS) subcutaneously into the right and left sides. Treatment was started eight days after injection of cancer cells (when tumors were visible). The various compounds were diluted in a mixture of Labrafil (90%) (Gattefosse), Tween 80 (1%) and N,N-Dimethylacetamide (9%). Five groups of six mice treated every day intraperitoneally with 0.7 mg/day of PLX4032, SR44 (HA15), SR47 (HA32), SR50 (JG25) or with the mixture of Labrafil in control were defined. Three times a week the tumor size was measured using a caliper. […]

normal human melanocytes = test: Trypan blue cell viability, normal melanocytes; format: cell-based; details: 10 μM, FIG. 2
Method: Primary cell cultures of human normal melanocytes were prepared from human foreskin. In order to determine the effect of compound HA15 on cell viability of melanocytes and fibroblasts, 10 μM of ciglitazone or 10 μM of HA15 were added to the cell samples. The measure of cell viability was performed in the same way as for FIG. 1. Results are expressed as the percentage of living cells relatively to the number of living cells in the presence of DMSO, as for FIG. 1. Normal human melanocytes (NHM) prepared from foreskins of newborns were grown under 5% CO2 at 37° C. in MCDB 153 (Sigma) supplemented with 2% FCS, bovine pituitary extract (10 μg/ml), PMA (8 nM), bFGF (ing/nil), insulin (5 μg/ml), hydrocortisone (0.5 μg/ml), forskolin (10 μM), gentamicin (20 μg/ml), penicillin/streptomycin/amphotericin B (100 U/ml) (Invitrogen). Cells were seeded in 6-well plates (60000 cells/well), depleted and incubated with compounds for the times indicated. Then cells were detached in the presence of 2000 of […] (Thermo) and 2 ml of RPMI 1640 Glutamax (Gibco) was added to the cell solution. 100 of this solution was stained for 1 minute with 100 of 0.4% trypan blue before counting with a Malassez chamber. The effect of compound HA15 on cell viability of melanocytes and fibroblasts was studied, as illustrated by FIG. 2. Primary cell cultures of human normal melanocytes were prepared from human foreskin. […]

normal human fibroblasts = test: Trypan blue cell viability, normal fibroblasts; format: cell-based; details: 10 μM, FIG. 2
Method: Primary cell cultures of human normal melanocytes were prepared from human foreskin. In order to determine the effect of compound HA15 on cell viability of melanocytes and fibroblasts, 10 μM of ciglitazone or 10 μM of HA15 were added to the cell samples. The measure of cell viability was performed in the same way as for FIG. 1. Results are expressed as the percentage of living cells relatively to the number of living cells in the presence of DMSO, as for FIG. 1. Normal human fibroblasts prepared from foreskins of newborns were grown under 5% CO2 at 37° C. in DMEM medium supplemented with 10% FCS and penicillin/streptomycin (100 U/ml/[…]). Cells were seeded in 6-well plates (60000 cells/well), depleted and incubated with compounds for the times indicated. Then cells were detached in the presence of 2000 of […] (Thermo) and 2 ml of RPMI 1640 Glutamax (Gibco) was added to the cell solution. 100 of this solution was stained for 1 minute with 100 of 0.4% trypan blue before counting with a Malassez chamber. The effect of compound HA15 on cell viability of melanocytes and fibroblasts was studied, as illustrated by FIG. 2. Primary cell cultures of human normal melanocytes were prepared from human foreskin. In order to determine the effect of compound HA15 on cell viability of melanocytes and fibroblasts, 10 μM of ciglitazone or 10 μM of HA15 were added to the cell samples. […]

phosphorylation = test: Western blot of MAP vemurafenib activation on A375 melanoma cells; format: cell-based; details: FIG. 6
Method: FIG. 6: Western Blots showing the effect of compounds of the invention and dabrafenib on MAP Vemurafenib activation on A375 melanoma cells.
Proteins were extracted in Fisher buffer containing TRIS-HCl pH 7.5 50 mM, NaCl 15 mM, Triton X-100 1% and proteases and phosphatases inhibitors. Briefly, cell lysates (30 μg) were separated by SDS-PAGE, transferred onto a PVDF membrane (Millipore, Molsheim, France) and then exposed to the appropriate antibodies. Proteins were visualized with the ECL system from Amersham (Arlington, Heights, Ill., USA). The western blots shown are representative of at least 3 independent experiments.
Indeed, dabrafenib as PLX4032 inhibits activation of B-Raf on B-Raf V600E mutated melanoma. The inhibition of B-Raf leads to inhibition of MAP Vemurafenib cascade and could be visualized through inhibition of MAP vemurafenib phosphorylation.

Compound: CC(=O)Nc1nc(-c2ccc(NS(=O)(=O)c3cccc4c(N(C)C)cccc34)cc2)cs1 [HA32, N-(4-(4-(5-(dimethylamino)naphthalene-1-sulfonamido)phenyl)thiazol-2-yl)acetamide]
- cell viability of resistant melanoma cells [1]: inhibit cell viability of resistant melanoma cells

Compound: CC(=O)Nc1nc(-c2cccc(NS(=O)(=O)c3ccc(C)cc3)c2)cs1 [SR50, N-(4-(3-(4-methylphenylsulfonamido)phenyl)thiazol-2-yl)acetamide]
- ability of cells to develop visible tumors (A375 melanoma cells): markedly attenuated
- cell viability of resistant melanoma cells [1]: inhibit cell viability of resistant melanoma cells

Compound: CC1(COc2ccc(CC3SC(=O)NC3=O)cc2)CCCCC1 (centres unmarked) [ciglitazone, reference compound]
- cell viability of normal melanocytes (normal human melanocytes): not affected
- cell viability of normal fibroblasts (normal human fibroblasts): not affected

Compound: CC(C)(C)c1nc(-c2cccc(NS(=O)(=O)c3c(F)cccc3F)c2F)c(-c2ccnc(N)n2)s1 [dabrafenib]
- cell viability of resistant melanoma cells [1]: contrary to dabrafenib inhibit cell viability of resistant melanoma cells
- MAP vemurafenib expression (phosphorylation): did not modulate
- MAP vemurafenib phosphorylation (phosphorylation; versus DMSO): complete inhibition
